Where two headings read alike, the source gives them in different places.
Experiments:
[1] = target: CDK2/CycA2 kinase (Homo sapiens, UniProt P24941); assay: Determination of inhibitory activity against CDK2/CycA2 kinase; format: biochemical
Protocol: 1.1 Determination of inhibitory activity against CDK2/CycA2 kinase
(§1) CDK2/CycA2 kinase solution (concentration: 0.078 ng/µL) was added to assay wells at 6 µL/well, and different compounds dissolved in DMSO were added to the assay wells separately using a nanoliter pipettor, such that the final concentrations of the compounds were 1000 nM to 0.244 nM. The wells were set in duplicate, and a control well was set. After a 30-min incubation of the above system, ATP (concentration: 50 µM or 5000 µM) was mixed with ULight-Myelin Basic Protein Peptide substrate (manufacturer: PerkinElmer, concentration: 0.25 µM) in a ratio of 1:1, and the mixture was added to the assay wells at 4 µL/well. The resultant mixture was left to react at room temperature for 2 h, and then 5 µL of EDTA was added to terminate the reaction, followed by the addition of 5 µL of a detection antibody (manufacturer: PerkinElmer, concentration: 8 nM). The mixture was incubated at room temperature for 1 h. The assay was performed using a PerkinElmer Envision multifunctional microplate reader (excitation: 320 nm, emission: 615 nm/665 nm), and IC50 was calculated by four-parameter fitting.

[2] = target: CDK2 CycE1 kinase (Homo sapiens, UniProt P24941); assay: Determination of inhibitory activity against CDK2 CycE1 kinase; format: biochemical
Protocol: 1.2 Determination of inhibitory activity against CDK2 CycE1 kinase
as §1, with “CDK2 CycEl” for “CDK2/CycA2”, “0.015” for “0.078”, “300” for “1000”, “0.07” for “0.244”, “fitting. […] Table 1: Inhibitory activity of compound against CDK2 CycA2 and CDK2 CycEl kinases” for “fitting.”

[3] = CDK2/CycA2 10 µM ATP (kinase) IC50 (nM)
[4] = read-out: CDK2/CycE1 10 µM ATP (kinase) IC50
[5] = read-out: CDK2/CycA2 10 µM ATP (kinase) IC50

Row | IC50 [1, 3] | IC50 ([2]; 10 µM ATP (kinase)) | IC50 [2, 4] | IC50 [1, 5] | Compound
1 | 10 to 50 nM | < 10 nM | – | – | CC(C)NC(=O)OC1CCC(c2cc(Nc3ccc4c(c3)C[S+]([O-])C4)n[nH]2)C1 (centres unmarked) [Compound 22]
2 | – | 10 to 50 nM | – | – | CCNC(=O)OC1CCC(c2cc(Nc3ccc4c(c3)C[S+]([O-])C4)[nH]n2)C1 (centres unmarked) [Compound 19]
3 | < 10 nM | < 10 nM | – | – | CC1(C)CCN1C(=O)OC1CCC(c2cc(Nc3ccc4c(c3)CS(=O)(=O)C4)[nH]n2)C1 (centres unmarked) [Compound 17]
4 | 10 to 50 nM | – | < 10 nM | – | CC1(C)CCN1C(=O)OC1CCC(c2cc(Nc3ccc4c(c3)C[S+]([O-])C4)[nH]n2)C1 (centres unmarked) [Compound 30]
5 | – | 10 to 50 nM | – | – | O=C(NC1CC1)OC1CCC(c2cc(Nc3ccc4c(c3)C[S+]([O-])C4)[nH]n2)C1 (centres unmarked) [Compound 24]
6 | – | – | < 10 nM | < 10 nM | C[C@H](NC(=O)O[C@@H]1CC[C@H](c2cc(Nc3ccc4c(c3)CS(=O)(=O)C4)[nH]n2)C1)C1CC1 [Compound 5]
7 | – | – | 10 to 50 nM | – | COCc1cc(Nc2cc([C@H]3CC[C@@H](OC(=O)NC(C)C)C3)n[nH]2)cc2c1C(C)S(=O)(=O)C2 (some centres unmarked) [Compound 8]
8 | – | – | < 10 nM | < 10 nM | CC(NC(=O)OC1CCC(c2cc(Nc3ccc4c(c3)CS(=O)(=O)C4)[nH]n2)C1)C1CC1 (centres unmarked) [Compound 3]
9 | < 10 nM | – | < 10 nM | – | CC1(C)CCN1C(=O)OC1CCC(c2cc(Nc3ccc4c(c3)C[S+]([O-])C4)[nH]n2)C1 (centres unmarked) [Compound 29]
10 | < 10 nM | < 10 nM | – | – | CC1CN(C)CCN1C(=O)OC1CCC(c2cc(Nc3ccc4c(c3)CS(=O)(=O)C4)[nH]n2)C1 (centres unmarked) [Compound 21]
11 | 10 to 50 nM | < 10 nM | – | – | CC1(NC(=O)OC2CCC(c3cc(Nc4ccc5c(c4)C[S+]([O-])C5)[nH]n3)C2)CC1 (centres unmarked) [Compound 25]
12 | – | – | < 10 nM | – | CC1(NC(=O)OC2CCC(c3cc(Nc4ccc5c(c4)C[S+]([O-])C5)[nH]n3)C2)CC1 (centres unmarked) [Compound 32]
13 | < 10 nM | < 10 nM | – | – | CCNC(=O)OC1CCC(c2cc(Nc3ccc4c(c3)CS(=O)(=O)C4)[nH]n2)C1 (centres unmarked) [Compound 10]
14 | – | – | – | < 10 nM | CC1(C)CCN1C(=O)OC1CCC(c2cc(Nc3ccc4c(c3)CS(=O)(=O)C4)[nH]n2)C1 (centres unmarked) [Compound 18]
15 | < 10 nM | < 10 nM | – | – | O=C(NC12CC(C1)C2)OC1CCC(c2cc(Nc3ccc4c(c3)CS(=O)(=O)C4)[nH]n2)C1 (centres unmarked) [Compound 7]
16 | < 10 nM | < 10 nM | – | – | CC(C)(C)NC(=O)OC1CCC(c2cc(Nc3ccc4c(c3)CS(=O)(=O)C4)[nH]n2)C1 (centres unmarked) [Compound 4]
17 | – | – | < 10 nM | – | CC(C)(C)NC(=O)OC1CCC(c2cc(Nc3ccc4c(c3)C[S+]([O-])C4)n[nH]2)C1 (centres unmarked) [Compound 36]
18 | 10 to 50 nM | < 10 nM | – | – | CC(C)(CCO)NC(=O)OC1CCC(c2cc(Nc3ccc4c(c3)CS(=O)(=O)C4)[nH]n2)C1 (centres unmarked) [Compound 6]

Row | IC50 [1, 3] | IC50 ([2]; 10 µM ATP (kinase)) | IC50 [2, 4] | IC50 [1, 5] | Compound
19 | < 10 nM | < 10 nM | – | – | O=C(NC1CCC1)OC1CCC(c2cc(Nc3ccc4c(c3)CS(=O)(=O)C4)[nH]n2)C1 (centres unmarked) [Compound 1]
20 | < 10 nM | < 10 nM | – | – | CC1(C)CCN1C(=O)OC1CCC(c2cc(Nc3ccc4c(c3)C[S+]([O-])C4)[nH]n2)C1 (centres unmarked) [Compound 26]
21 | – | – | 10 to 50 nM | – | CCNC(=O)OC1CCC(c2cc(Nc3ccc4c(c3)C[S+]([O-])C4)[nH]n2)C1 (centres unmarked) [Compound 37]
22 | < 10 nM | – | < 10 nM | – | CC1(NC(=O)OC2CCC(c3cc(Nc4ccc5c(c4)C[S+]([O-])C5)[nH]n3)C2)CC1 (centres unmarked) [Compound 31]
23 | – | – | < 10 nM | – | O=C(NC12CC(C1)C2)OC1CCC(c2cc(Nc3ccc4c(c3)C[S+]([O-])C4)n[nH]2)C1 (centres unmarked) [Compound 34]
24 | < 10 nM | < 10 nM | – | – | O=C(NCC(F)F)OC1CCC(c2cc(Nc3ccc4c(c3)CS(=O)(=O)C4)[nH]n2)C1 (centres unmarked) [Compound 13]
25 | < 10 nM | < 10 nM | – | – | O=C(NC12CC(C1)C2)OC1CCC(c2cc(Nc3ccc4c(c3)C[S+]([O-])C4)n[nH]2)C1 (centres unmarked) [Compound 16]
26 | < 10 nM | < 10 nM | – | – | CC(C)NC(=O)OC1CCC(c2cc(Nc3cc(F)c4c(c3)CS(=O)(=O)C4)[nH]n2)C1 (centres unmarked) [Compound 11]
27 | – | – | < 10 nM | – | CC(C)(C)NC(=O)OC1CCC(c2cc(Nc3ccc4c(c3)C[S+]([O-])C4)n[nH]2)C1 (centres unmarked) [Compound 35]
28 | 10 to 50 nM | < 10 nM | – | – | O=C(NCC(F)(F)F)OC1CCC(c2cc(Nc3ccc4c(c3)CS(=O)(=O)C4)[nH]n2)C1 (centres unmarked) [Compound 12]
29 | < 10 nM | < 10 nM | – | – | CC(C)(C)NC(=O)OC1CCC(c2cc(Nc3ccc4c(c3)C[S+]([O-])C4)n[nH]2)C1 (centres unmarked) [Compound 14]
30 | – | < 10 nM | – | – | O=C(NC1CC1F)OC1CCC(c2cc(Nc3ccc4c(c3)C[S+]([O-])C4)[nH]n2)C1 (centres unmarked) [Compound 41]
31 | – | – | < 10 nM | – | CC(C)NC(=O)OC1CCC(c2cc(Nc3ccc4c(c3)C[S+]([O-])C4)n[nH]2)C1 (centres unmarked) [Compound 23]
32 | – | – | < 10 nM | 10 to 50 nM | CC(C)NC(=O)OC1CCC(c2cc(Nc3ccc4c(c3)C[S+]([O-])C4)n[nH]2)C1 (centres unmarked) [Compound 2]
33 | – | – | < 10 nM | – | O=C(NC12CC(C1)C2)OC1CCC(c2cc(Nc3ccc4c(c3)C[S+]([O-])C4)n[nH]2)C1 (centres unmarked) [Compound 33]
34 | – | < 10 nM | – | – | CC(C)NC(=O)OC1CCC(c2cc(Nc3ccc4c(c3)CCS4(=O)=O)n[nH]2)C1 (centres unmarked) [Compound 15]
35 | – | 10 to 50 nM | – | – | CC1CN(C)CCN1C(=O)OC1CCC(c2cc(Nc3ccc4c(c3)C[S+]([O-])C4)[nH]n2)C1 (centres unmarked) [Compound 20]
